Results: patent US6503532B1, “Pharmaceutical composition containing tetrahydrocannabinol and a transdermal/transcutaneous delivery method thereof” (Murty Pharmaceuticals, Inc., priority 2001, dated 2003)

Assays:
[1] = 750 courses of oral therapy; cited from earlier work
[2] = in vivo; cited from earlier work
[3] = Solubility of THC in ethanol:water with or without permeation enhancer (HPLC); conditions: ethanol:water 70:30 v/v, aqueous with cosolvent or surfactant or cyclodextrin, thermodynamic from solid

CCCCCc1cc(O)c2c(c1)OC(C)(C)[C@@H]1CCC(C)=C[C@@H]21 [THC, tetrahydrocannabinol]
poor or only partial response to THC, share of courses [1]: approximately 65% | Plasma levels for therapeutic effects [2]: ~10 nanograms/ml | solubility at 24 h [3]: 20.2 mg/mL
